In patent publication US6410249B1, “Odorant receptors” (priority 1999, dated 2002):
Like-named read-outs stand apart in the source and are kept apart here.

Tests used:
[1] = tested on: goldfish olfactory neurons; assay: multi-unit recordings from the goldfish olfactory epithelium; assay type: cell-based; conditions: 0.1 μM
salmon olfactory neurons = conditions: 0.01-10 μM, isolated salmon olfactory neurons; cited from earlier work
receptor 5.24 [2] = molecular target: T1, receptor 5.24 (Carassius auratus, UniProt Q9PW88); assay: evoked currents in Xenopus oocytes expressing receptor 5.24 (two-electrode voltage clamp); assay type: cell-based, goldfish
T1 construct: The receptor 5.24 full length cDNA detects 1-2 bands in genomic DNA blots; expressed in transfected cells; host or cells: HEK 293 cells expressing SV40 large T antigen (293-TSA)
T1 sequence (Q9PW88 25-877): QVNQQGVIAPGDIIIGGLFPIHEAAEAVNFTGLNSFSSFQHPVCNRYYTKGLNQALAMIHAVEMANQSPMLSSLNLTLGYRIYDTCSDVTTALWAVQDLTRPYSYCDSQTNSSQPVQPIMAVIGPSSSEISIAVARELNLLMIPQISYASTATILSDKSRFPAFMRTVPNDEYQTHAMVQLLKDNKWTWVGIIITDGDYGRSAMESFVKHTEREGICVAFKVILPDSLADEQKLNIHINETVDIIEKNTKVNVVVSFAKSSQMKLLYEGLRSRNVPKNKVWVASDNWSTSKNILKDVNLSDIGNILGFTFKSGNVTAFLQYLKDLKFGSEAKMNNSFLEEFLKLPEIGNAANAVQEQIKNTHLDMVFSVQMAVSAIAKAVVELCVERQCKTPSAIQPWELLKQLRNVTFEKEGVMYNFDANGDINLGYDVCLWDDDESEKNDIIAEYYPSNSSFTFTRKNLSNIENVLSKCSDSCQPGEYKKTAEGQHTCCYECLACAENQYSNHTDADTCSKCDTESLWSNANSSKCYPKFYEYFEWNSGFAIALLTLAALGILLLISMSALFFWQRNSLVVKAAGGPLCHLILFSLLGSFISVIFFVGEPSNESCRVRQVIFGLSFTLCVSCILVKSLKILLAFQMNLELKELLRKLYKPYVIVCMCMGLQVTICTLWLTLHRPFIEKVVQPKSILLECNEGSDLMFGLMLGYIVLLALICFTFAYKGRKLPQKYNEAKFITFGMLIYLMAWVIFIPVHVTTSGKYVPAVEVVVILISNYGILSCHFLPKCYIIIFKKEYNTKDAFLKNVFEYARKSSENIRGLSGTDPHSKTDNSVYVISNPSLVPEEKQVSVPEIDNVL
Excerpt: Identification by Expression Cloning of a cDNA Encoding a Goldfish Odorant Receptor. RNA was synthesized from pools of goldfish olfactory cDNA clones (900 individual clones per pool) and injected into Xenopus oocytes together with synthetic RNAs encoding GIRK and Gaolf. Oocytes were then screened for responses upon exposure to odorant cocktails containing amino acids, bile acids, or sex pheromones. […] The response to amino acids was biphasic, beginning with an oscillating inward current above the basal inward K+ current, followed by a decline in inward current to below the basal level. Such a biphasic effect is thought to be caused by Gaq-mediated activation of phospholipase C (responsible for the intial inward current via IP3) and protein kinase C (leading to suppression of the K+ current through phosphorylation of GIRK channel subunits) (Sharon et al., 1997).
Iterative subdivision of pool 19 by sib-selection allowed the isolation of a single clone encoding a receptor, designated receptor 5.24.
Oocytes were removed from anesthetized Xenopus laevis and treated with collagenase. Forty nanograms of cRNA from each cDNA library pool (˜40 pg cRNA/clone) was injected per oocyte, together with cRNAs encoding Gaolf and the GIRK subunits Kir 3.1 and Kir 3.4 (˜30 pg each). Approximately 30 pools were assayed before these primary screens were halted. Injected oocytes were incubated at 17° C. for over 80 hours prior to electrophysiological recordings. Recordings were performed by two-electrode voltage clamping using an Axoclamp-2A amplifier (Axon Instruments) or a Dagan CA-1 amplifier (Dagan Corp.). Data acquisition and analysis were performed using pCLAMP software (Axon Instruments). Membrane potential was held at −80 mV. For trials involving GIRK, oocytes were first perfused with Na-MBSH (88 mM NaCl, 1 mM KCl, 2.4 mM NaHCO3, 10 mM Hepes, pH 7.5, 0.82 mM MgSO4[7H2O], 0.33 mM Ca[NO3]2[4H2O], 0.41 mM CaCl2[2H2O]), and then switched into K-MBSH, which contains elevated K+ (88 mM KCl, 1 mM NaCl) until the basal current had stabilized (˜45 seconds) before challenging with agonist. Recordings on oocytes injected with receptor 5.24 in the absence of Gaolf and/or GIRK subunits were performed in Na-MBSH. Oocytes were exposed to solutions containing different agonists by switching bathing solutions with an 8 channel valve (Hamilton).

receptor 5.24 [3] = molecular target: T1, receptor 5.24; assay: biochemical; assay type: binding
Experimental: Structure-Activity Properties of Compounds Interacting with the Cloned Goldfish Amino Acid Odorant Receptor. An understanding of how odorant receptors are used to encode olfactory information requires a characterization of the odorant specificities of individual receptor types. We therefore wished to determine the relative specificity of receptor 5.24 for structurally related ligands. […] Briefly, 3H-arginine binding to membranes from receptor 5.24-expressing HEK 293 cells was assayed in the absence or presence of varying concentrations of competitor ligands.
(§1) Mammalian Cell Culture and DNA Transfections. For cell transfections, the receptor 5.24 cDNA insert was subcloned into two expression vectors: CMVI, which utilizes a human cytomegalovirus (CMV) immediate early promoter-enhancer plus the CMV intron A sequence to drive expression, and 608RX-2.2L, which is similar to CMVI except the cDNA insert is followed by an internal ribosome entry site (IRES)—enhanced green fluorescent protein (EGFP) coding sequence; 608RX-2.2L also contains a puromycin resistance gene. For transient assays, HEK 293 cells expressing the SV40 large T antigen (293 TSA cells) were transfected with the CMVI-receptor 5.24 or CMVI control plasmid using lipofectamine (Life Technologies) and harvested at 48 hours for membrane preparations. For stable cell lines, 293-TSA cells were transfected with the 608RX-2.2L-receptor 5.24 plasmid or a control 608RX-2.2L plasmid and selected in puromycin. Colonies showing high levels of EGFP fluorescence (as judged by epifluorescence microscopy) were picked, expanded, and screened for 3H-L-arginine binding (see below).
(§2) Membrane Preparations and Ligand Binding Assays. Membranes for ligand binding assays were prepared by washing confluent cells three times with phosphate buffered saline (PBS), detaching cells with a PBS-based enzyme-free dissociation solution, and resuspending cells in ice-cold 5.0 mM Hepes, pH 7.4, 1.0 mM EDTA, 1.0 μg/ml leupeptin, 0.5 mM PMSF. All subsequent manipulations were performed on ice. After a 30 min incubation, the cell suspension was homogenized and centrifuged at 100,000×g for 30 min. Cell membrane pellets were washed twice by resuspension and centrifugation in binding buffer (20 mM Hepes, pH 7.4, 1.0 mM EDTA, 2.0 mM MgCl2, 1.0 μg/ml leupeptin, 0.5 mM PMSF), resuspended in binding buffer, and frozen at −80° C.
Saturation binding assays were performed using 20-25 μg of membrane protein in a final volume of 100 μl binding buffer and increasing concentrations of [2,3-3H] L-arginine (specific activity=40 Ci/mmol; Dupont NEN). Non-specific binding was measured in the presence of 500 μM unlabeled L-arginine. Competition assays were performed with 500 nM [2,3-3H] L-arginine and increasing concentrations of competitor ligands. All incubations were performed at 4° C. for 60 min and terminated by rapid filtration through Whatman GF/C filters pretreated with ice cold 0.1% polyethyleneimine. Filters were washed three times with 4.0 ml ice cold 20 mM Hepes, pH 7.4, and retained radioactivity was measured by scintillation counting.

receptor 5.24 [4] = molecular target: T1, receptor 5.24; assay: 3H-L-arginine saturation binding to membranes of receptor 5.24-expressing HEK 293 cells; parameters: species or system goldfish; conditions: summary statement; read-out: Kd (high affinity interaction)
Excerpt: High-Affinity Binding of Radiolabeled L-Arginine to the Cloned Goldfish Odorant Receptor. To determine the affinity of the cloned goldfish amino acid receptor for basic amino acids, we characterized the ligand-receptor interaction by radiolabeled ligand binding to receptors expressed in mammalian cells. Human embryonic kidney (HEK) 293 cells were transfected with expression plasmids containing the receptor 5.24 cDNA insert. […] We next wished to determine what second messenger pathway receptor 5.24 couples to in HEK 293 cells. Control cells or cells expressing receptor 5.24 were exposed to varying concentrations of arginine and assayed for the accumulation of IP3 and cAMP.
as §1, with “below). In five independent receptor 5.24-transfected stable cell lines, receptor densities (Rt) varied between 0.5 and 6.0 pmol L-arginine binding sites/mg membrane protein. […] All competition binding assays and signal transduction studies were performed using the stable cell line 5.24-20 (Rt=2.0 pmol /mg) and a control cell line (2.2-9) stably transfected with vector alone (Rt=0.03 pmol/mg).” for “below).”
as §2
Saturation binding assays were performed using 20-25 μg of membrane protein in a final volume of 100 μl binding buffer and increasing concentrations of [2,3-3H] L-arginine (specific activity=40 Ci/mmol; Dupont NEN). Non-specific binding was measured in the presence of 500 μM unlabeled L-arginine. Competition assays were performed with 500 nM [2,3-3H] […] Filters were washed three times with 4.0 ml ice cold 20 mM Hepes, pH 7.4, and retained radioactivity was measured by scintillation counting. […] Data were analyzed by nonlinear curve fitting using Origin software (Microcal). […]

In the case of `CCCCCC(=O)/C=C/[C@@H]1[C@@H](C/C=C\CCCC(=O)O)[C@@H](O)C[C@H]1O` [1 5-ketoprostaglandin F2a], the locations that responded [1] is reported as 25 out of 65.

For `N[C@@H](CO)C(=O)O` [L-Serine], the “fraction of cells sensitive” value (salmon olfactory neurons) is given as roughly 60%, the “activation of receptor 5.24 (evoked currents), in words” value (receptor 5.24 [2]) is given as “smaller responses” and the Ki (receptor 5.24 [3]; displacement of 3H-L-arginine from membranes of HEK 293 cells expressing receptor 5.24, read-out: Ki (binding affinity)) is given as 2800 nM.

For `NCCCC[C@H](N)C(=O)O` [L-Lysine], the Kd (receptor 5.24 [4]) was roughly 100 nM, the Ki (receptor 5.24 [3]) was 90 nM and the “binding to receptor 5.24, in words” value (receptor 5.24 [3]; comparative binding studies) was “highest affinities”.
